Here are results for one compound from ChEMBL document CHEMBL5725619, “Substituted oxopyridine derivatives” (2018).

The assay can be described thus: Plasma Kallikrein Assay: Test substances are dissolved in dimethyl sulphoxide and serially diluted in dimethyl sulphoxide (3000 μM to 0.0078 μM; resulting final concentrations in the test: 50 μM to 0.00013 μM). 1 μl of the diluted substance solutions is placed into each of the wells of white microtitre plates from Greiner (384 wells). 20 μl of assay buffer (50 mM Tris/HCl pH 7.4; 100 mM sodium chloride solution; 5 mM of calcium chloride solution; 0.1% of bovine serum albumin) and 20 μl of plasma kallikrein from Kordia (0.6 nM in assay buffer) are then added successively. After 15 min of incubation, the enzyme reaction is started by addition of 20 μl of the substrate H-Pro-Phe-Arg-AMC dissolved in assay buffer (10 μM in assay buffer) from Bachem, the mixture is incubated at room temperature (22° C.) for 30 min and fluorescence is then measured (excitation: 360 nm, emission: 460 nm). The measured emissions of the test batches with test substance are compared to those of control batches without test substance (only dimethyl sulphoxide instead of test substance in dimethyl sulphoxide), and IC50 values are calculated from the concentration/activity relationships.

A word on the IC50: it is the concentration needed to halve the response being measured. In the case of `COCCC(C(=O)Nc1cc(F)c(C(N)=O)s1)n1cc(OC)c(-c2cc(Cl)ccc2C#N)cc1=O` (stereo unspecified), the half-maximal inhibitory concentration (IC50) was 100 nM.
